# Target: T1, Corticotropin-releasing factor-binding protein (Homo sapiens, UniProt P24387)
# T1 sequence (P24387 whole entry): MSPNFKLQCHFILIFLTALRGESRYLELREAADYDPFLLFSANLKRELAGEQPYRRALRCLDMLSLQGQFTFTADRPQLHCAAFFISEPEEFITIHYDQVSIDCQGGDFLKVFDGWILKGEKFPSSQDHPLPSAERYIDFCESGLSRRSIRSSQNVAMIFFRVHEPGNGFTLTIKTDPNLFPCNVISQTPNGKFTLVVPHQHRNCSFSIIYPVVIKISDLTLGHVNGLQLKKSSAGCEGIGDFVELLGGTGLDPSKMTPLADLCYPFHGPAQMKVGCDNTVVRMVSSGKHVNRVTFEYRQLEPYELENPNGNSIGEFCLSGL
# Assay: activators of CRF receptor 2 with binding protein – uHTS hits, confirmation (AID 602473)
row,Structure (SMILES),EC50 [µM]
1,Nc1ccc2c(c1)C(N=O)c1ccccc1-2 (stereo not drawn) [SMR001570622],> 53
2,CN(C)c1ccc(C(N=O)c2ccccc2)cc1 (stereo not drawn) [[4-(dimethylamino)phenyl]-phenylmethanone oxime],> 53
3,"N#CC(C(=O)COC(=O)c1ccccc1O)c1nc2ccccc2s1 (stereo not drawn) [[(3Z)-3-(3H-1,3-benzothiazol-2-ylidene)-3-cyano-2-oxidanylidene-propyl] 2-oxidanylbenzoate]",> 53
4,O=NC(N1CCOCC1)P(=O)(N1CCOCC1)N1CCOCC1 (stereo not drawn) [bis(4-morpholinyl)phosphoryl-(4-morpholinyl)methanone oxime],> 53
5,"CCOC(=O)C1CCCN(c2cc(O)n(-c3ccccc3)c2O)C1 (stereo not drawn) [ethyl 1-(2,5-dioxo-1-phenylpyrrolidin-3-yl)piperidine-3-carboxylate]",> 53
6,"CCOC(=O)c1c(NC=C2C(=O)NC(=S)NC2=O)sc2c1CCC2 [ethyl 2-[(E)-(4,6-dioxo-2-sulfanylidene-1,3-diazinan-5-yl)methylideneamino]-5,6-dihydro-4H-cyclopenta[b]thiophene-3-carboxylate]",> 53
7,COC(=O)C1=C(C)NC(=O)C1=CNc1ccc(C(C)C)cc1 [methyl (4E)-2-methyl-5-oxidanylidene-4-[[(4-propan-2-ylphenyl)amino]methylidene]-1H-pyrrole-3-carboxylate],> 53
8,"COC(=O)Cc1sc(=O)[nH]c1Nc1ccc(OC)cc1 [methyl {4-[(4-methoxyphenyl)imino]-2-oxo-1,3-thiazolidin-5-yl}acetate]",> 53
